According to US7807844B2, “TGF-β gene expression inhibitor” (Nihon University, priority 2003, dated 2010):

Assays:
hTGF-β1 promoter [1] = test: Transient transfection and luciferase assay in hVSMC; assay type: cell-based, human; settings: for expression of luciferase driven by hTGF-β1 promoter: 10^−9 M, 24 hr incubation
Experimental: One microgram of the luciferase gene which was controlled by the hTGF-β1 promoter was transfected for 6 hr in sterilized medium using lipofectin reagent. After 24 hr of the transfection, cells were incubated for 24 hr in a medium containing 0.5% CS in the presence (or absence) of the polyamide or the mismatched polyamide, and the luciferase activity was assayed in these cells extracts using a dual luciferase/reporter gene assay system. One hundred μL of luciferase substrate was mixed with 20 μL cell extracts. After the mixing, the reaction mixture was placed in a luminometer (Turner Designs-Bioblock, Illkirch, France), and the light emitted for ten seconds at room temperature was measured. PMA was used as a positive control. Comparison with the control *P<0.05.
(§1) The 2.2 kb fragment containing the hTGF-β1 promoter derived from plasmid phTBG 101 (non-patent document 10) was isolated and inserted to pGL3 basic plasmid (Promega, Madison, Wis.) at the upstream of the coding region of luciferase reporter gene. The accurate structure of the constructed plasmid was identified by spectral analysis with restriction enzymes analysis and sequencing.
hVSMC cells were cultured at a density of […] in 24 well plates in the presence of 10% CS. After 24 hr, the reporter gene that was driven by the hTGF-β1 promoter was transfected using Lipofectin reagent (GibcoBRL) in the presence of 1 μg DNA in the sterilized medium, according to the method indicated by the manufacturer. Cells were incubated with the DNA liposome complex for 6 hours, and then the medium was exchanged to 1 ml of fresh complete medium. […] After brief centrifugation, luciferase activity in the cell extracts was measured using a dual-luciferase reporter gene assay system (Promega, Madison, Wis.). […] After mixing, the reaction mixture was placed in a luminometer (Turner Designs-Bioblock, Illkirch, France), and the light emitted for ten seconds at room temperature was measured.

hTGF-β1 mRNA = test: RT-PCR assay of hTGF-β1 mRNA in hVSMC; assay type: cell-based, human; settings: for expression of hTGF-β1 mRNA: 10^−9 M, 24 hr, TPA induced
Experimental: Treatment with 50 ng/mL of TPA was used as a positive control. […] (A) Five microliters of PCR product was separated on a 1.5% agarose gel electrophoresis. […] Cultured cells were washed with PBS, dissolved in 800 μL of RNAzolB (Biotex Laboratories, Inc., Houston, Tex.), mixed with 80 μL of chloroform and centrifuged. The colorless upper aqueous phase was mixed with an equal volume of isopropanol to precipitate RNA. RNA pellet was washed twice with 500 μL of 75% ethanol and, after drying, dissolved in 10 μL of TE buffer. After denaturing at 65° C. for 15 min, the RNA sample was treated with 0.5 U DNase (Gibco) in 0.5 ml of DNase buffer (20 mM Tris-HCl pH 8.3, 50 mM KCl, 2.5 mM MgCl2) at room temperature for 45 min. DNase was denatured by adding 0.5 ml of 0.5M EDTA and heating at 98° C. for 10 min. RNA aliquots of an equal amount (1 μg/20 μL) were reverse transcribed to single stranded cDNAs using 2.5 U/20 μL of avian myeloblastosis virus reverse transcriptase (Takara Biochemicals, Osaka, Japan) in 10 mM Tris-HCl (pH 8.3), 5 mM MgCl2, 50 mM KCl, 1 mM deoxy NTPs and 2.5 μM random hexamers. Two microliters of the diluted cDNA product was made up to 25 μl by mixing with 10 mM Tris-HCl (pH 8.3), 50 mM KCl, 4 mM MgCl2, 0.025 U/μL Taq DNA polymerase (Takara Biochemicals, Osaka, Japan), and 0.2 μM each of the upstream sense primer and downstream antisense primer. […] For human 18S ribosomal RNA, the sense primer ([…] NO: 6) and the antisense primer ([NT] ID NO: 7) were used as the internal control. PCR was carried out with an automatic heat controller (Perkin Elmer, Foster, Calif.). The PCR conditions were: initial denaturation, at 94° C. for 2 min; 30 cycles of denaturation at 94° C. for 1 min, annealing at 58° C. for 1 min and extension at 72° C. for 1 min; last extension at 72° C. for 1 min. As an internal control, PCR with primers for 18S rRNA was included in each reaction. […] For semi-quantitative analysis of mRNA, the kinetics of PCR was monitored. […] The intensity of the bands was measured by computer analysis using NIH software.

[2] = test system: double stranded oligonucleotide corresponding to the base pairs from −548 to −537 of hTGF-β1 promoter; test: Gel-shift assay: binding of polyamide to double stranded oligonucleotide; parameters: species or system human; settings: binding buffer, 37° C., 15 min; 20% polyacrylamide gel, autoradiography
Experimental: The double stranded DNA corresponding to the base pair sequence from −548 to −537 of the hTGF-β1 promoter (FIG. 1) was labeled by T4 polynucleotide using [γ-^32P]-ATP and incubated in a binding buffer at 37° C. for 15 min together with mismatch polyamide (lane 0) or with increasing amount of the polyamide (lane 1, 2 and 3 was 1 nM, 2 nM and 4 nM, respectively). The complexes thus obtained were electrophoresed on a 20% polyacrylamide gel and visualized by autoradiography.
Oligonucleotides were synthesized, annealed, and 12 kinds of double stranded oligonucleotides were produced corresponding to the base pairs from −548 to −537 of hTGF-β1 promoter (FIG. 1A). The double stranded DNAs were labeled with [γ-^32P]-ATP using T4 polynucleotide kinase, and incubated in a binding buffer (40 mM Tris, pH 7.9, 250 mM NaCl, 25 mM EDTA, 25 mM DTT, 100 mM KCl) with the polyamides or mismatched polyamides at 37° C. for 15 min. The complexes thus obtained were electrophoresed by 20% polyacrylamide gel and visualized by autoradiography.

hTGF-β1 promoter [3] = test: In vitro transcription reaction with HeLa nuclear extract; assay type: biochemical, human; settings: HeLa nuclei extract, hTGF-β1 promoter template, 30° C., 60 min
Experimental: One microgram of a plasmid was incubated in the transcription buffer with 8 U of HeLa nucleus extract, 3 kinds of non-labeled nucleotide triphosphates (UTP, CTP, GTP) at […] each, and 25 μM α-^32P-ATP at 30° C. for 60 min. The reaction was terminated by adding 175 μl of HeLa extract stop solution, and then phenol-chloroform-isoamyl alcohol extraction and ethanol precipitation were carried out. Samples were re-suspended in 98% […] loading dye and heated at 90° C. for 10 min before loading a 6%, 7 M urea-polyacrylamide gel. The gel was dried and visualized by autoradiography;
as §1
In vitro transcription reactions were carried out using nuclear extracts of Hela cells and the in vitro transcription system (Promega, Madison, Wis.). […]

hTGF-β1 protein = test: Western blot analysis of hTGF-β1 protein in hVSMC; assay type: cell-based, human; settings: 10^−9 M, 24 hr incubation
Experimental: 10^−9 M of the polyamide was added to medium of cultured hVSMC and incubated for 24 hr. (A) The expression of hTGFβ1 protein was investigated by Western blot analysis.
Test VSMC and control VSMC were incubated in 6-well plates for 24 hr, washed twice with PBS and incubated on ice in 300 μL of lysis buffer (50 mM Tris-HCl (pH 8.0), 150 mM NaCl, 1 mM EDTA, 1 mM phenylmethylsulfonyl fluoride, 1 μg/mL aprotinin, 1% Triton X-100) for 30 min. Cells were scraped into a 1.5 mL tube and centrifuged, and the supernatant was collected. The protein content of the supernatant was assayed by Bradford protein assay using BIO-RAD protein assay kit (Bio-Rad Lab, Hercules, Calif.). The supernatant contained 20 μg of total protein, which was denatured at 100° C. for 3 min in the loading buffer, electrophoresed on a 10% polyacrylamide gel and transferred to a nitrocellulose membrane. The membrane was incubated at room temperature for 1 hr with mouse monoclonal antibody with specificity to hTGF-β1 (1:500) (R&D systems, Minneapolis, Minn.), and then incubated at room temperature for 1 hr with anti-mouse HRP conjugated secondary antibody at 1:2000. After washing sufficiently, the membrane was incubated with an […] luminescence substrate (Amersham Life Service, Buckinghamshire, UK) and exposed to an X-ray film.

Experimental for cultured hVSMC: FITC labeled polyamide was added directly to the culture medium at the concentration of 10^−9 M and observed under a fluorescent microscope.
hVSMC was obtained from Clonetics (Walkersville, Md.). hVSMC was cultured in Dulbecco's modified Eagle's medium (DMEM) containing 10% calf serum (Gibco Life Technologies, Gaithersburg, Md.), 100 U/ml penicillin and 100 mg/ml streptomycin. Cells were passaged by trypsin treatment with 0.05% trypsin (Gibco) in Ca^2+-free and Mg^2+-free phosphate buffered saline (PBS) and cultured in 75-cm^2 tissue culture flasks. The medium was exchanged every four or five days, and experiments were carried out on cells during 5-10 passages.
Passaged hVSMC was cultured at a density of 10^5/cm^2 for 24 hr in a 24-well flask. FITC-labeled polyamides were directly added to the medium at a concentration of 10^−9 M and observed every one hour under a florescent microscope.

In the case of `CCCCCCCCCCCCCC(=O)O[C@@H]1[C@@H](C)[C@@]2(O)[C@@H](C=C(CO)C[C@]3(O)C(=O)C(C)=C[C@@H]23)[C@H]2C(C)(C)[C@]12OC(C)=O` [TPA], the “expression of luciferase driven by hTGF-β1 promoter (positive control)” value (hTGF-β1 promoter [1]; positive control) is reported as “stimulated the expression of luciferase protein” and the “expression of hTGF-β1 mRNA (positive control)” value (hTGF-β1 mRNA; 50 ng/mL) is reported as “significantly stimulated the expression of hTGF-β1 mRNA”.

For `CN(C)CCCNC(=O)CCNC(=O)c1cc(NC(=O)c2cc(NC(=O)CCNC(=O)c3cc(NC(=O)c4cc(NC(=O)c5cc(NC(=O)CCCNC(=O)c6cc(NC(=O)c7cc(NC(=O)c8nc(NC(=O)CCNC(=O)c9cc(NC(=O)c%10cc(NC(=O)c%11nc(NC(=O)CCNC(=S)Nc%12ccc%13c(c%12)C(=O)OC%13%12c%13ccc(O)cc%13Oc%13cc(O)ccc%13%12)cn%11C)cn%10C)cn9C)cn8C)cn7C)cn6C)cn5C)cn4C)cn3C)cn2C)cn1C` [compound 4a, FITC-β-IPP-β-IPP-γ-PPP-β-PP-β Dp], the “detection of FITC in the nuclei of cultured hVSMC” value (cultured hVSMC) was “detected in the nuclei of cultured hVSMC at a high density” and the “time FITC labeled polyamide remains in the nucleus of cultured hVSMC” value (cultured hVSMC) was “more than 48 hr”.

`CC(=O)Nc1cn(C)c(C(=O)Nc2cc(C(=O)Nc3cc(C(=O)NCCC(=O)Nc4cn(C)c(C(=O)Nc5cc(C(=O)Nc6cc(C(=O)NCCCC(=O)Nc7cc(C(=O)Nc8cc(C(=O)Nc9cc(C(=O)NCCC(=O)Nc%10cc(C(=O)Nc%11cc(C(=O)NCCC(=O)O)n(C)c%11)n(C)c%10)n(C)c9)n(C)c8)n(C)c7)n(C)c6)n(C)c5)n4)n(C)c3)n(C)c2)n1` [compound 4b, Ac-IPP-β-IPP-γ-PPP-β-PP-βCOOH] was tested, and the “binding to the corresponding 12 base pairs double stranded oligonucleotide” value [2] was “able to bind”, the “transcription in in vitro transcription system” value (hTGF-β1 promoter [3]) was “reduce transcription” and the “expression of luciferase driven by hTGF-β1 promoter” value (hTGF-β1 promoter [1]) was “significantly downregulated the expression of luciferase”. For the same compound, the “expression of hTGF-β1 mRNA” value (hTGF-β1 mRNA) was “inhibited the expression of hTGF-β1 mRNA induced by TPA” and the “expression of hTGF-β1 protein” value (hTGF-β1 protein) was “inhibited the expression of hTGF-β1 protein”.

For “Ac-PPP-β-IPP-γ-PPP-β-COOH [mismatch polyamide]”, the “binding to the corresponding 12 base pairs double stranded oligonucleotide” value [2] was “failed to bind”, the “transcription in in vitro transcription system” value (hTGF-β1 promoter [3]) was “did not show any significant effect” and the “expression of luciferase driven by hTGF-β1 promoter” value (hTGF-β1 promoter [1]) was “had no effect”. For the same compound, the “expression of hTGF-β1 mRNA” value (hTGF-β1 mRNA) was “did not”.
